# How the values were obtained:
# Ramos RA1 B cells = test: Ramos FLIPR Assay; assay type: cell-based; details: goat anti-human IgM 2.5 μg/mL, peak intracellular calcium, read-out: IC50 for Inhibition of Ramos FLIPR assay
# human recombinant Btk = target: T1, human recombinant Btk (Homo sapiens, UniProt Q06187); test: Human Recombinant Btk Enzyme Assay; assay type: biochemical; details: human recombinant Btk 1 nM, ATP 20 μM, 60 min at room temperature; read-out: IC50 for Inhibition of Btk
# T1 construct: purchased Invitrogen Corporation
# T1 sequence (Q06187 whole entry): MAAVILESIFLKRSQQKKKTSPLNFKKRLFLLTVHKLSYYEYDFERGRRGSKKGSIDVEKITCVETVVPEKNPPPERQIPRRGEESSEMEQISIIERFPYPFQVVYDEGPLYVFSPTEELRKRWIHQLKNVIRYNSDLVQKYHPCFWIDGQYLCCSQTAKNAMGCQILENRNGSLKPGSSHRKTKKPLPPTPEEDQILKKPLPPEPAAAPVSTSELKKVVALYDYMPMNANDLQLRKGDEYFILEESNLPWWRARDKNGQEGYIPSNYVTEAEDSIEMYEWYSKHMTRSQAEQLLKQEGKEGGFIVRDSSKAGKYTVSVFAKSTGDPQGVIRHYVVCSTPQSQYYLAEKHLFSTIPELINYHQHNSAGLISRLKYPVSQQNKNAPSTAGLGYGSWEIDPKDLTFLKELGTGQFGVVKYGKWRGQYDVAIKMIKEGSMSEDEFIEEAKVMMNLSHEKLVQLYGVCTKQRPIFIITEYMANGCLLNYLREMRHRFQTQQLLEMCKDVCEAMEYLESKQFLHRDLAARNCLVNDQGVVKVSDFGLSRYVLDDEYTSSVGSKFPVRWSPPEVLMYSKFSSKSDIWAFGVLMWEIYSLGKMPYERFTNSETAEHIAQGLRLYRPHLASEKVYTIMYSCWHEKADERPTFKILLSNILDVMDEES
Structure (SMILES),IC50 (Ramos RA1 B cells) [nM],IC50 (human recombinant Btk) [nM]
CN1CCN(C(=O)c2ccc3c(c2)[nH]c2c(C(N)=O)ccc(-c4c(F)cc(NC(=O)c5ccc(F)cc5)cc4F)c23)CC1 [Example 5-48],1400,–
"Cc1ccc(NC(=O)Nc2cccc(-c3ccc(C(N)=O)c4[nH]c5cc(C(=O)N6CCN(C)CC6)ccc5c34)c2C)cc1C [Example 8-1, 4-(3-(3-(3,4-dimethylphenyl)ureido)-2-methylphenyl)-7-(4-methylpiperazine-1-carbonyl)-9H-carbazole-1-carboxamide]",5400,–
"Cc1c(Nc2ncnc3cc(Cl)ccc23)cccc1-c1ccc(C(N)=O)c2[nH]c3cc(C(=O)N4CCN(C)CC4)ccc3c12 [Example 11-6, 4-(3-(7-chloroquinazolin-4-ylamino)-2-methylphenyl)-7-(4-methylpiperazine-1-carbonyl)-9H-carbazole-1-carboxamide]",280,–
"Cc1c(NC(=O)c2ccc(F)cn2)cccc1-c1ccc(C(N)=O)c2[nH]c3cc(NC(=O)OCc4ccccc4)ccc3c12 [Example 52-1, benzyl 8-carbamoyl-5-(3-(5-fluoropicolinamido)-2-methylphenyl)-9H-carbazol-2-ylcarbamate]",–,520
"Cc1c(NC(=O)c2ccccn2)cccc1-c1ccc(C(N)=O)c2[nH]c3c(c12)CCC(NC(=O)OCc1ccccc1)C3 (stereo not drawn) [Example 52-2, benzyl 8-carbamoyl-5-(2-methyl-3-(picolinamido)phenyl)-2,3,4,9-tetrahydro-1H-carbazol-2-ylcarbamate]",–,520
"Cc1c(NC(=O)c2ccc(F)cc2)cccc1-c1ccc(C(N)=O)c2[nH]c3cc(N(Cc4ccccc4)Cc4ccccc4)ccc3c12 [Example 54-7, 7-(dibenzylamino)-4-(3-(4-fluorobenzamido)-2-methylphenyl)-9H-carbazole-1-carboxamide]",–,830
"Cc1c(NC(=O)c2ccc(F)cc2)cccc1-c1ccc(C(N)=O)c2[nH]c3cc(NC(=O)[C@H](C)N)ccc3c12 [Example 57-3, 7-((S)-2-aminopropanamido)-4-(3-(4-fluorobenzamido)-2-methylphenyl)-9H-carbazole-1-carboxamide]",–,2.1
Cc1c(NC(=O)c2ccc(F)cc2)cccc1-c1ccc(C(N)=O)c2[nH]c3cc(NC(=O)Cc4ccncc4)ccc3c12 [Example 57-13],–,15
Cc1c(NC(=O)c2ccc(F)cc2)cccc1-c1ccc(C(N)=O)c2[nH]c3cc(NC(=O)CCCN4CCOCC4)ccc3c12 [Example 57-16],–,2.1
Cc1c(NC(=O)c2ccc(F)cc2)cccc1-c1ccc(C(N)=O)c2[nH]c3cc(NC(=O)CCN4CCOCC4)ccc3c12 [Example 57-18],–,2.2
Cc1c(NC(=O)c2ccc(F)cc2)cccc1-c1ccc(C(N)=O)c2[nH]c3cc(NC(=O)c4ccc(C#N)cc4)ccc3c12 [Example 57-20],–,15
Cc1c(NC(=O)c2ccc(F)cc2)cccc1-c1ccc(C(N)=O)c2[nH]c3cc(NC(=O)CN)ccc3c12 [Example 57-37],–,1.8
"Cc1c(NC(=O)c2nccn2C)cccc1-c1ccc(C(N)=O)c2[nH]c3cc(NC(=O)NC(C)C)ccc3c12 [Example 60-1, 7-(3-isopropylureido)-4-(2-methyl-3-(1-methyl-1H-imidazole-2-carboxamido)phenyl)-9H-carbazole-1-carboxamide]",–,18
Cc1c(NC(=O)c2ccc(F)cc2)cccc1-c1ccc(C(N)=O)c2[nH]c3cc(NC4CCN(C)CC4)ccc3c12 [Example 61-2],–,2.2
"Cc1c(-c2ccc(C(N)=O)c3[nH]c4cc(N5CCCC5=O)ccc4c23)cccc1N1Cc2ccccc2C1=O [Example 62-1, 4-(2-methyl-3-(1-oxoisoindolin-2-yl)phenyl)-7-(2-oxopyrrolidin-1-yl)-9H-carbazole-1-carboxamide]",250,–
"Cc1ccc2c(c1)CN(c1cncc(-c3ccc(C(N)=O)c4[nH]c5cc(NC(C)C)ccc5c34)c1C)C2=O [Example 66-2, 7-(isopropylamino)-4-(4-methyl-5-(5-methyl-1-oxoisoindolin-2-yl)pyridin-3-yl)-9H-carbazole-1-carboxamide]",–,16
Cc1ccc2c(c1)CN(c1cccc(-c3ccc(C(N)=O)c4[nH]c5cc(N6CCCC6=O)ccc5c34)c1C)C2=O [Example 66-5],260,–
Cc1c(-c2ccc(C(N)=O)c3[nH]c4cc(N5CCOC5=O)ccc4c23)cccc1N1Cc2ccccc2C1=O [Example 66-10],270,–
Cc1c(-c2ccc(C(N)=O)c3[nH]c4cc(N5CCNC5=O)ccc4c23)cccc1N1Cc2cc(F)ccc2C1=O [Example 66-14],260,–
Cc1ccc2c(c1)C(=O)N(c1cccc(-c3ccc(C(N)=O)c4[nH]c5cc(N6CCCC6=O)ccc5c34)c1C)C2 [Example 66-16],–,2
Cc1c(-c2ccc(C(N)=O)c3[nH]c4cc(NC(=O)C(C)(C)C)ccc4c23)cccc1N1Cc2cc(F)ccc2C1=O [Example 66-34],–,16
Cc1ccc2c(c1)C(=O)N(c1cccc(-c3ccc(C(N)=O)c4[nH]c5cc(N6CCC(C)(C)C6=O)ccc5c34)c1C)C2 [Example 66-37],–,15
Cc1c(-c2ccc(C(N)=O)c3[nH]c4cc(NC(=O)C5CC5)ccc4c23)cccc1N1Cc2ccccc2C1=O [Example 66-39],260,–

Structure (SMILES),IC50 (Ramos RA1 B cells) [nM],IC50 (human recombinant Btk) [nM]
Cc1ccc2c(c1)CN(c1cncc(-c3ccc(C(N)=O)c4[nH]c5cc(N6CCOC6=O)ccc5c34)c1C)C2=O [Example 66-40],270,–
"Cc1c(-c2ccc(C(N)=O)c3[nH]c4cc(NCC(O)CO)ccc4c23)cccc1N1Cc2ccccc2C1=O (stereo not drawn) [Example 67-1, 7-(2,3-dihydroxypropylamino)-4-(2-methyl-3-(1-oxoisoindolin-2-yl)phenyl)-9H-carbazole-1-carboxamide]",–,2.2
Cc1c(-c2ccc(C(N)=O)c3[nH]c4cc(C(O)CO)ccc4c23)cccc1N1Cc2ccc(F)cc2C1=O (stereo not drawn) [Example 70-9],–,1.5
Cc1c(-c2ccc(C(N)=O)c3[nH]c4cc(C(O)CO)ccc4c23)cccc1N1Cc2ccc(F)cc2C1=O (stereo not drawn) [Example 70-10],–,1
"Cc1ccc2c(c1)C(=O)N(c1cccc(-c3ccc(C(N)=O)c4[nH]c5cc(C(O)CO)ccc5c34)c1C)C2 (stereo not drawn) [Example 70-11, 7-(1,2-dihydroxyethyl)-4-(2-methyl-3-(6-methyl-1-oxoisoindolin-2-yl)phenyl)-9H-carbazole-1-carboxamide]",–,1.4
"CC(C)(O)C1CCc2c([nH]c3c(C(N)=O)ccc(Br)c23)C1 (stereo not drawn) [Example 73-1, 5-bromo-2-(2-hydroxypropan-2-yl)-2,3,4,9-tetrahydro-1H-carbazole-8-carboxamide]",–,540
"Cc1c(-c2ccc(C(N)=O)c3[nH]c4cc(C(C)(C)O)ccc4c23)cccc1-n1ccn2ccnc2c1=O [Example 76-2, 7-(2-hydroxypropan-2-yl)-4-(2-methyl-3-(8-oxoimidazo[1,2-a]pyrazin-7(8 H)-yl)phenyl)-9H-carbazole-1-carboxamide]",–,1.3
Cc1c(/N=C2\OCc3ccncc32)cccc1-c1ccc(C(N)=O)c2[nH]c3c(c12)CCC(C(C)(C)O)C3 (stereo not drawn) [Example 76-7],240,–
"Cc1c(-c2ccc(C(N)=O)c3[nH]c4c(c23)CCC(C(C)(C)O)C4)cccc1-n1c(C)nc2ccccc2c1=O (stereo not drawn) [Example 76-10, 2-(2-hydroxypropan-2-yl)-5-(2-methyl-3-(2-methyl-4-oxoquinazolin-3(4H)-yl)phenyl)-2,3,4,9-tetrahydro-1H-carbazole-8-carboxamide]",–,18
Cc1c(-c2ccc(C(N)=O)c3[nH]c4cc(C(C)(C)O)ccc4c23)cccc1N1Cc2ccncc2C1=O [Example 76-18],–,1.8
Cc1c(-c2ccc(C(N)=O)c3[nH]c4c(c23)CCC(C(C)(C)O)C4)cccc1-n1cnc2cccc(F)c2c1=O (stereo not drawn) [Example 76-41],–,18
Cc1c(-c2ccc(C(N)=O)c3[nH]c4c(c23)CCC(C(C)(C)O)C4)cccc1N1Cc2ccc(C(F)(F)F)cc2C1=O (stereo not drawn) [Example 76-44],–,18
"Cc1c(NC(=O)c2nccs2)cccc1-c1ccc(C(N)=O)c2[nH]c3cc(N4CCN(C)CC4)ccc3c12 [Example 77-2, N-(3-(1-carbamoyl-7-(4-methylpiperazin-1-yl)-9H-carbazol-4-yl)-2-methylphenyl)thiazole-2-carboxamide]",–,1.9
Cc1c(NC(=O)c2nccn2C)cccc1-c1ccc(C(N)=O)c2[nH]c3cc(C(O)CO)ccc3c12 (stereo not drawn) [Example 78-2],–,1.6
Cc1ccc2c(Nc3cccc(-c4ccc(C(N)=O)c5[nH]c6cc(N7CCCC7=O)ccc6c45)c3C)ncnc2c1 [Example 79-2],–,16.9
Cc1c(Nc2ncnc3ccc(F)cc23)cccc1-c1ccc(C(N)=O)c2[nH]c3cc(N4CCCC4=O)ccc3c12 [Example 79-3],–,15
Cc1c(Nc2ncnc3cc(F)ccc23)cccc1-c1ccc(C(N)=O)c2[nH]c3cc(N4CCCC4=O)ccc3c12 [Example 79-4],–,16
"Cc1c(-c2ccc(C(N)=O)c3[nH]c4cc(NC(C)C)ccc4c23)cccc1-n1ccn2ccnc2c1=O [Example 80-1, 7-(isopropylamino)-4-(2-methyl-3-(8-oxoimidazo[1,2-a]pyrazin-7(8H)-yl)phenyl)-9H-carbazole-1-carboxamide]",–,1.9
Cc1c(-c2ccc(C(N)=O)c3[nH]c4cc(C(C)(C)O)ccc4c23)cccc1-n1ccn2c(C)cnc2c1=O [Example 81-3],–,1.9
Cc1c(-c2ccc(C(N)=O)c3[nH]c4cc(C(C)(C)O)ccc4c23)cccc1N1CCc2cc(F)ccc2C1=O [Example 81-20],–,2.2
"Cc1ccc2c(c1)C(=O)N(c1cccc(-c3ccc(C(N)=O)c4[nH]c5cc(C(COC(=O)C(C)N)OC(=O)C(C)N)ccc5c34)c1C)C2 (stereo not drawn) [Example 83-3, 1-(8-carbamoyl-5-(2-methyl-3-(6-methyl-1-oxoisoindolin-2-yl)phenyl)-9H-carbazol-2-yl)ethane-1,2-diylbis(2-aminopropanoate)]",–,1.4
"Cc1ccc2c(c1)C(=O)N(c1cccc(-c3ccc(C(N)=O)c4[nH]c5cc(C(O)COC(=O)C(C)N)ccc5c34)c1C)C2 (stereo not drawn) [Example 83-4, 2-(8-carbamoyl-5-(2-methyl-3-(6-methyl-1-oxoisoindolin-2-yl)phenyl)-9H-carbazol-2-yl)-2-hydroxyethyl 2-aminopropanoate]",–,1.1

# Source: US8362065B2, “Carbazole carboxamide compounds useful as kinase inhibitors” (Bristol-Myers Squibb Company, priority 2008, dated 2013)
